Reference: patent US20230257372A1 (CHONG KUN DANG PHARMACEUTICAL CORP., priority 2020, published 2023)
Like-named read-outs stand apart in the source and are kept apart here.

Tests used:
human recombinant HDAC1 = biological target: T1, human recombinant HDAC1 (Homo sapiens, UniProt Q13547); experiment: HDAC1 enzyme activity inhibition (HDAC Fluorimetric Drug Discovery Kit); type: biochemical; conditions: read-out: HDAC1
T1 construct: purchased Enzo Life Science, Inc. BML-SE456
Summary of the method: (§1)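 Each isoform is run in the same format: compound dilutions (5-fold steps), 10 μM substrate, […] enzyme, one hour at 30° C, then 30 minutes with developer before fluorescence readout.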

human recombinant HDAC6 = biological target: T2, human recombinant HDAC6 (Homo sapiens, UniProt Q9UBN7); experiment: HDAC6 enzyme activity inhibition (HDAC Fluorimetric Drug Discovery Kit); type: biochemical
T2 construct: purchased Calbiochem Inc. 382180
T2 sequence (Q9UBN7 1-1215): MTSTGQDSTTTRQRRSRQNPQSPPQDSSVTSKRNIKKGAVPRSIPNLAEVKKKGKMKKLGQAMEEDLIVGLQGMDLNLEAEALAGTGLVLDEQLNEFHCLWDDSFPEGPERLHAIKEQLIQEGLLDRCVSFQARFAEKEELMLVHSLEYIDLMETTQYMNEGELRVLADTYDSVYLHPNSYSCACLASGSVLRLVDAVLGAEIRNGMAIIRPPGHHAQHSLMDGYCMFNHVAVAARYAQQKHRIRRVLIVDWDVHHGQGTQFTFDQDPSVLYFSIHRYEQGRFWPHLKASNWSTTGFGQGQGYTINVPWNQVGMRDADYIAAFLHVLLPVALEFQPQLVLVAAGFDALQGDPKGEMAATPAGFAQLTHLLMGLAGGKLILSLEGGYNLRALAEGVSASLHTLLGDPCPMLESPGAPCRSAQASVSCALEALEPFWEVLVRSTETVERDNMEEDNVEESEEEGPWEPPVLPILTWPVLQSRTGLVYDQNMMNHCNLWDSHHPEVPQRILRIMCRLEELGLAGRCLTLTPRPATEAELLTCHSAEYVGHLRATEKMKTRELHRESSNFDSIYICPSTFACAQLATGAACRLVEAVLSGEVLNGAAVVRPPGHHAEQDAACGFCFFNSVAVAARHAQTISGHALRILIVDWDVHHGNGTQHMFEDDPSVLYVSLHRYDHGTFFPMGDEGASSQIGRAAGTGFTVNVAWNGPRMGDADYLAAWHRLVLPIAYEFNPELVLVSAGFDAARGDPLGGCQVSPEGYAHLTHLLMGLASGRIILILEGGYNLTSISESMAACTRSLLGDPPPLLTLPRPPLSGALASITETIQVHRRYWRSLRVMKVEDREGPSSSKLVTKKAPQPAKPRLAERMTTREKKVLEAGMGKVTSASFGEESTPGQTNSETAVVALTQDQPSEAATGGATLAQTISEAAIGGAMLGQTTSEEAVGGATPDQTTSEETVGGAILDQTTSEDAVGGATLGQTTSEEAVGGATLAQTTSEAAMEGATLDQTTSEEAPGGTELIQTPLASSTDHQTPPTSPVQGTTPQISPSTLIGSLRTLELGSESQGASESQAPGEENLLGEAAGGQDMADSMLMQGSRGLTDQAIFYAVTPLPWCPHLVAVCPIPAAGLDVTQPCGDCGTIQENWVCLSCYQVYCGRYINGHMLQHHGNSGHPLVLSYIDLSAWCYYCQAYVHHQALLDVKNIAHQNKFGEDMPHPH
Summary of the method: as §1

[1] = human recombinant HDAC1, IC50 calculated with GraphPad Prism
[2] = human recombinant HDAC6, IC50 calculated with GraphPad Prism
[3] = human recombinant HDAC1, Fluor de Lys substrate, 30° C. 60 minutes
[4] = human recombinant HDAC6, same protocol as HDAC1

T1 sequence (Q13547 whole entry): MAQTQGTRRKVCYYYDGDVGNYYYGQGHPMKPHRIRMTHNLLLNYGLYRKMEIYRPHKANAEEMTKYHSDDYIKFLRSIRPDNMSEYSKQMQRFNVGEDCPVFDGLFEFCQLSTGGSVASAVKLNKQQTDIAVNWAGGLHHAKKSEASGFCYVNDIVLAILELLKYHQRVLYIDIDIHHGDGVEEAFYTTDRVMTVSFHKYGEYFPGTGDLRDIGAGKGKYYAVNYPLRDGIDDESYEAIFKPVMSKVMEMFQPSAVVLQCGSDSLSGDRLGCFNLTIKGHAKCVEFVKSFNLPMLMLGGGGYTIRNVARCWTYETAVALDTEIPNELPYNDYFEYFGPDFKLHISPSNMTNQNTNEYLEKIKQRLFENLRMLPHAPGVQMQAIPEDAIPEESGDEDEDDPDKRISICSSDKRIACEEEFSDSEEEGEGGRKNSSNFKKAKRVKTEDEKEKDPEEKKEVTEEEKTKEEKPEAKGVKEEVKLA

Row | Compound | IC50 (human recombinant HDAC1; [1]) | HDAC6 selectivity (fold) (human recombinant HDAC6; HDAC1 IC50 / HDAC6 IC50) | IC50 (human recombinant HDAC6; [2]) | IC50 (human recombinant HDAC1; [3]) | HDAC6 selectivity (fold) (human recombinant HDAC6; HDAC6 over HDAC1) | IC50 (human recombinant HDAC6; [4])
1 | Fc1cc(-c2nnc(C(F)F)o2)ccc1Cn1cc(-c2ccccc2CN2CCC2)nn1 [Compound 4583, 2-(4-((4-(2-(azetidin-1-ylmethyl)phenyl)-1H-1,2,3-triazol-1-yl)methyl)-3-fluorophenyl)-5-(difluoromethyl)-1,3,4-oxadiazole] |  |  |  | > 50000 nM | 138 fold | 360 nM
2 | FC(F)c1nnc(-c2ccc(Cn3cc(-c4cccc(CN5CCC(F)(F)CC5)c4)nn3)cc2)o1 [Compound 4413, 2-(difluoromethyl)-5-(4-((4-(3-((4,4-difluoropiperidin-1-yl)methyl)phenyl)-1H-1,2,3-triazol-1-yl)methyl)phenyl)-1,3,4-oxadiazole] | > 50000 nM | 348 fold | 144 nM |  |  | 
3 | CCN1Cc2cccc(-c3cn(Cc4ccc(-c5nnc(C(F)F)o5)cc4F)nn3)c2C1 [Compound 4535, 2-(difluoromethyl)-5-(4-((4-(2-ethylisoindolin-4-yl)-1H-1,2,3-triazol-1-yl)methyl)-3-fluorophenyl)-1,3,4-oxadiazole] |  |  |  | > 50000 nM | 512 fold | 97.5 nM
4 | O=C(O)c1ccc(-c2cn(Cc3ccc(-c4nnc(C(F)F)o4)cc3F)nn2)cc1 [Compound 3732, 4-(1-(4-(5-(difluoromethyl)-1,3,4-oxadiazol-2-yl)-2-fluorobenzyl)-1H-1,2,3-triazol-4-yl)benzoic acid] | > 50000 nM | 74 fold | 672 nM |  |  | 
5 | Fc1cc(-c2nnc(C(F)F)o2)ccc1Cn1cc(-c2ccc(Cl)nc2)nn1 [Compound 16781, 2-(4-((4-(6-chloropyridin-3-yl)-1H-1,2,3-triazol-1-yl)methyl)-3-fluorophenyl)-5-(difluoromethyl)-1,3,4-oxadiazole] |  |  |  | > 50000 nM | 546 fold | 91.5 nM
6 | Fc1cc(-c2nnc(C(F)F)o2)ccc1Cn1cc(-c2cnc3[nH]ccc3c2)nn1 [Compound 4524, 2-(4-((4-(1H-pyrrolo[2,3-b]pyridin-5-yl)-1H-1,2,3-triazol-1-yl)methyl)-3-fluorophenyl)-5-(difluoromethyl)-1,3,4-oxadiazole] |  |  |  | > 50000 nM | 6024 fold | 8.3 nM
7 | Fc1cc(-c2nnc(C(F)F)o2)cnc1Cn1cc(-c2cc(Cl)cc(CN3CCCC3)c2)nn1 [Compound 19092, 2-(6-((4-(3-chloro-5-(pyrrolidin-1-ylmethyl)phenyl)-1H-1,2,3-triazol-1-yl)methyl)-5-fluoropyridin-3-yl)-5-(difluoromethyl)-1,3,4-oxadiazole] |  |  |  | > 50000 nM | 541 fold | 92.4 nM
8 | Fc1cc(-c2nnc(C(F)F)o2)ccc1Cn1cc(-c2csc(CN3CCCC3)c2)nn1 [Compound 18187, 2-(difluoromethyl)-5-(3-fluoro-4-((4-(5-(pyrrolidin-1-ylmethyl)thiophen-3-yl)-1H-1,2,3-triazol-1-yl)methyl)phenyl)-1,3,4-oxadiazole] |  |  |  | > 50000 nM | 605 fold | 82.6 nM
9 | CN(C)c1cccc(-c2cn(Cc3ccc(-c4nnc(C(F)F)o4)cc3)nn2)c1 [Compound 4323, 3-(1-(4-(5-(difluoromethyl)-1,3,4-oxadiazol-2-yl)benzyl)-1H-1,2,3-triazol-4-yl)-N,N-dimethylaniline] | > 50000 nM | 310 fold | 161 nM |  |  | 
10 | FC(F)c1nnc(-c2ccc(Cn3cc(-c4cc(C(F)(F)F)cc(C(F)(F)F)c4)nn3)cc2)o1 [Compound 3695, 2-(4-((4-(3,5-bis(trifluoromethyl)phenyl)-1H-1,2,3-triazol-1-yl)methyl)phenyl)-5-(difluoromethyl)-1,3,4-oxadiazole] | > 50000 nM | 42 fold | 1190 nM |  |  | 
11 | OC1(c2cn(Cc3ccc(-c4nnc(C(F)F)o4)cc3F)nn2)COC1 [Compound 4278, 3-(1-(4-(5-(difluoromethyl)-1,3,4-oxadiazol-2-yl)-2-fluorobenzyl)-1H-1,2,3-triazol-4-yl)oxetan-3-ol] | > 50000 nM | 160 fold | 311 nM |  |  | 
12 | CC(C)N1C[C@@H]2C[C@H]1CN2c1cccc(-c2cn(Cc3ccc(-c4nnc(C(F)F)o4)cc3)nn2)c1 [Compound 4321, 2-(difluoromethyl)-5-(4-((4-(3-((1S, 4S)-5-isopropyl-2,5-diazabicyclo[2.2.1]heptan-2-yl)phenyl)-1H-1,2,3-triazol-1-yl)methyl)phenyl)-1,3,4-oxadiazole] | > 50000 nM | 434 fold | 111 nM |  |  | 
13 | Fc1cc(-c2nnc(C(F)F)o2)ccc1Cn1cc(-c2ccc(CN3CCC(F)(F)CC3)cc2)nn1 [Compound 4472, 2-(difluoromethyl)-5-(4-((4-(4-((4,4-difluoropiperidin-1-yl)methyl)phenyl)-1H-1,2,3-triazol-1-yl)methyl)-3-fluorophenyl)-1,3,4-oxadiazole] | > 50000 nM | 407 fold | 123 nM |  |  | 

Other lines, results leading:

Row | IC50 (human recombinant HDAC1; [1]) | HDAC6 selectivity (fold) (human recombinant HDAC6; HDAC1 IC50 / HDAC6 IC50) | IC50 (human recombinant HDAC6; [2]) | IC50 (human recombinant HDAC1; [3]) | HDAC6 selectivity (fold) (human recombinant HDAC6; HDAC6 over HDAC1) | IC50 (human recombinant HDAC6; [4]) | Compound
14 | > 50000 nM | 106 fold | 471 nM |  |  |  | CC(=O)N1CCC(Cc2cn(Cc3ccc(-c4nnc(C(F)F)o4)cn3)nn2)CC1 [Compound 4015, 1-(4-((1-((5-(5-(difluoromethyl)-1,3,4-oxadiazol-2-yl)pyridin-2-yl)methyl)-1H-1,2,3-triazol-4-yl)methyl)piperidin-1-yl)ethan-1-one]
15 | > 50000 nM | 2873 fold | 17.4 nM |  |  |  | CC(C)N1CCN(C(=O)c2cccc(-c3cn(Cc4ccc(-c5nnc(C(F)F)o5)cn4)nn3)c2)CC1 [Compound 4448, (3-(1-((5-(5-(difluoromethyl)-1,3,4-oxadiazol-2-yl)pyridin-2-yl)methyl)-1H-1,2,3-triazol-4-yl)phenyl)(4-isopropylpiperazin-1-yl)methanone]
16 | > 50000 nM | 391 fold | 128 nM |  |  |  | Cc1ccccc1-c1cn(Cc2ccc(-c3nnc(C(F)F)o3)cn2)nn1 [Compound 3860, 2-(difluoromethyl)-5-(6-((4-(o-tolyl)-1H-1,2,3-triazol-1-yl)methyl)pyridin-3-yl)-1,3,4-oxadiazole]
17 |  |  |  | > 50000 nM | 529 fold | 94.4 nM | Fc1cc(-c2nnc(C(F)F)o2)cnc1Cn1cc(-c2ccc(CN3CCCC3)c(Cl)c2)nn1 [Compound 19096]
18 | > 50000 nM | 1818 fold | 27.5 nM |  |  |  | Fc1ccc(-c2cn(Cc3ccc(-c4nnc(C(F)F)o4)cn3)nn2)cc1 [Compound 3855]
19 |  |  |  | > 50000 nM | 2127 fold | 23.5 nM | FC(F)c1nnc(-c2ccc(Cn3cc(-c4ccnc(N5CCN(C6CC6)CC5)c4)nn3)nc2)o1 [Compound 4593, 2-(6-((4-(2-(4-cyclopropylpiperazin-1-yl)pyridin-4-yl)-1H-1,2,3-triazol-1-yl)methyl)pyridin-3-yl)-5-(difluoromethyl)-1,3,4-oxadiazole]
20 | > 50000 nM | 239 fold | 208 nM |  |  |  | CC(=O)N1CCC[C@H]1c1cn(Cc2ccc(-c3nnc(C(F)F)o3)cn2)nn1 [Compound 4029, (S)-1-(2-(1-((5-(5-(difluoromethyl)-1,3,4-oxadiazol-2-yl)pyridin-2-yl)methyl)-1H-1,2,3-triazol-4-yl)pyrrolidin-1-yl)ethan-1-one]
